From patent US20150087627A1, “COMBINATION OF KINASE INHIBITORS AND USES THEREOF” (Intellikine LLC, priority 2011, published 2015)
pIC50: −log10 of the molar value. Structures can show the parent of a compound that is named as a salt. *1 amine or outer side, *2 acyl side, *3 side chain or, on linkers, in order; H or OH if unused. Where a SMILES comes first, the peptide text is derived from it. Bridges are numbered along the chain shown (N, C = ends). Roman numbers before positions name the chains, in order. [ ]: non-standard residue; d: D form. Actinocin(9to1) = Cc1c2oc3c(C)ccc(C(=O)[*:1])c3nc-2c(C(=O)[*:2])c(N)c1=O; NMeV = CN[C@H](C(=O)O)C(C)C; Sar = CNCC(=O)O

What was measured:
[1] = clinical use of the marketed drug; cited from earlier work
PI3K α (p110α/p85α) = biological target: T1, PI3K α (p110α/p85α) (Homo sapiens, UniProt P42336); assay: PI 3-Kinase (human) HTRF assay, PI3K α; assay type: biochemical; details: read-out: PI3K α IC50
T1 construct: purchased Upstate / Millipore Corporation
T1 sequence (P42336 whole entry): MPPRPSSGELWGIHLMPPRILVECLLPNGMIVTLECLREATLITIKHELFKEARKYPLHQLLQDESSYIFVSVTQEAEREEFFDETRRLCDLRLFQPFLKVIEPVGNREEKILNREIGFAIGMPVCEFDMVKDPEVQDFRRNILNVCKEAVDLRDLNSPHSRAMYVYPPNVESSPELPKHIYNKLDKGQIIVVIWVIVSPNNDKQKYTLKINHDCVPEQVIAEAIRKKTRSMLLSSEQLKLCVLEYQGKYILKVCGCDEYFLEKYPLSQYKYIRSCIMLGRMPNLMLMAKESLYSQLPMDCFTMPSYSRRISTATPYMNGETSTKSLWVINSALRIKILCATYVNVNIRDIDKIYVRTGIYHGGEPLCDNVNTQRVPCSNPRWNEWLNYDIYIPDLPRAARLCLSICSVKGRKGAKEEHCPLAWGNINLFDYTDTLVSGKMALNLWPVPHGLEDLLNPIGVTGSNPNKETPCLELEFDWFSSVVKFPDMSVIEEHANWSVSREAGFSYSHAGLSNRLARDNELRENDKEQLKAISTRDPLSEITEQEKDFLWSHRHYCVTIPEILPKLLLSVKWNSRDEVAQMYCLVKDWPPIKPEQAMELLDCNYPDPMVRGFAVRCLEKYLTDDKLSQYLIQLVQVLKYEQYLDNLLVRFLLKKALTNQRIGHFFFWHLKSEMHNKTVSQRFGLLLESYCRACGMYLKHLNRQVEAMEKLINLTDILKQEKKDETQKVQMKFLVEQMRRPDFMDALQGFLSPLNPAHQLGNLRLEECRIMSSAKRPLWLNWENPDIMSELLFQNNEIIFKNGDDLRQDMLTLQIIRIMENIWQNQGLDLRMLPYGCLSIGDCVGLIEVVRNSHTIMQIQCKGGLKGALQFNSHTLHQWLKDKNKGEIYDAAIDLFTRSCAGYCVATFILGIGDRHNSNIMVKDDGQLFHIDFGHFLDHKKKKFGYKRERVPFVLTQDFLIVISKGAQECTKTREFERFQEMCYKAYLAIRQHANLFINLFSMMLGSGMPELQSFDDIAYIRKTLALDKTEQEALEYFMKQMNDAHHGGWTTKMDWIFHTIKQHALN
T1 sequence (P27986 whole entry partner): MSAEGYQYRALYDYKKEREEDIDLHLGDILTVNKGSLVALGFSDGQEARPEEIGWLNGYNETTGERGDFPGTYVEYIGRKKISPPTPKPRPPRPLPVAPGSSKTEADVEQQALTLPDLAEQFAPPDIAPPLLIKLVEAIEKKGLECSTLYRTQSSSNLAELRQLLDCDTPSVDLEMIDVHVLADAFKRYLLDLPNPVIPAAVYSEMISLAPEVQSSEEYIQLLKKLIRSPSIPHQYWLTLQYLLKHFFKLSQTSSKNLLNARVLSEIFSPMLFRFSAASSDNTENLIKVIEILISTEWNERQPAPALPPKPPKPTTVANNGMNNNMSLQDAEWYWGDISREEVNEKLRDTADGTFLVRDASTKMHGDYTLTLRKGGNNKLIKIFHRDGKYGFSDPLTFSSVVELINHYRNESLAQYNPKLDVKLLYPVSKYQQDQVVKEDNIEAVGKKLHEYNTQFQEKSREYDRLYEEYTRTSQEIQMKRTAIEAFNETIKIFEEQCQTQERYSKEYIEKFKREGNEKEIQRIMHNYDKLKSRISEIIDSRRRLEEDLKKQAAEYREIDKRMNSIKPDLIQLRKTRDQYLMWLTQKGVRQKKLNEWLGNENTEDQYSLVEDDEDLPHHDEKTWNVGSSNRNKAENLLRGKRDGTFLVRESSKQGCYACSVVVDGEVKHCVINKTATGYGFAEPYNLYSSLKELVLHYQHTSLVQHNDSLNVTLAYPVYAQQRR

T47D = T47D proliferation; assay type: cell-based; details: Homo sapiens; T47D cell line
PI3K δ = biological target: T2, PI3K δ (Homo sapiens, UniProt O00329); assay: PI 3-Kinase (human) HTRF assay, PI3K δ; assay type: biochemical; details: read-out: PI3K δ IC50
T2 construct: purchased Upstate / Millipore Corporation
T2 sequence (O00329 whole entry): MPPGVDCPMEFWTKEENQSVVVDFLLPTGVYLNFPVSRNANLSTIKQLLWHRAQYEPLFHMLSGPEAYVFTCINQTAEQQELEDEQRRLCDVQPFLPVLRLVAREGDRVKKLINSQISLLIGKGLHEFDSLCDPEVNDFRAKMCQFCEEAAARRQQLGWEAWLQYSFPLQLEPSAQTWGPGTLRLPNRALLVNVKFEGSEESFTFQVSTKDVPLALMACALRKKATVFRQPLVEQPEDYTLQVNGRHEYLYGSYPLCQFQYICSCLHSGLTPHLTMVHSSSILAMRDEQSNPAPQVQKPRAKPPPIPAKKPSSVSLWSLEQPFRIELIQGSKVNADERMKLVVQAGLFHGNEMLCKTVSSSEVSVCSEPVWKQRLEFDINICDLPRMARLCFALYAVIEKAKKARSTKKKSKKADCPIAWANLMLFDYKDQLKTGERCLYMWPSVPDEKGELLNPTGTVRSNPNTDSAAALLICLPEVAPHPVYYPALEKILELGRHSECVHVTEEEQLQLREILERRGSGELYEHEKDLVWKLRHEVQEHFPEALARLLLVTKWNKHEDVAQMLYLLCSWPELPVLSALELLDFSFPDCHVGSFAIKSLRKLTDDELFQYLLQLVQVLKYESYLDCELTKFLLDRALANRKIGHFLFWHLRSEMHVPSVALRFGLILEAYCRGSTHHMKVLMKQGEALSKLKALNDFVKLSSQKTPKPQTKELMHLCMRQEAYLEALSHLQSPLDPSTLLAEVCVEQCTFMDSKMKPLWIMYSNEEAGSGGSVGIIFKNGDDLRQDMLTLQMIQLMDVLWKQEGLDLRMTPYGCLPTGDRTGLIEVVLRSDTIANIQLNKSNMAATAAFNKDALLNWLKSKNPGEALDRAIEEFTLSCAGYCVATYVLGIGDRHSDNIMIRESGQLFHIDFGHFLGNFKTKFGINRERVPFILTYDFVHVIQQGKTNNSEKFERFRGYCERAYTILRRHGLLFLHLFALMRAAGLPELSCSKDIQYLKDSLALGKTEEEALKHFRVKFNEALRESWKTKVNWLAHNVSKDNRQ
T2 sequence (P27986 whole entry partner): as the sequence (P27986 whole entry partner) above

PI3K β (p110β/p85α) = biological target: T3, PI3K β (p110β/p85α) (Homo sapiens, UniProt P42338); assay: PI 3-Kinase (human) HTRF assay, PI3K β; assay type: biochemical; details: read-out: PI3K β IC50
T3 construct: purchased Upstate / Millipore Corporation
T3 sequence (P42338 whole entry): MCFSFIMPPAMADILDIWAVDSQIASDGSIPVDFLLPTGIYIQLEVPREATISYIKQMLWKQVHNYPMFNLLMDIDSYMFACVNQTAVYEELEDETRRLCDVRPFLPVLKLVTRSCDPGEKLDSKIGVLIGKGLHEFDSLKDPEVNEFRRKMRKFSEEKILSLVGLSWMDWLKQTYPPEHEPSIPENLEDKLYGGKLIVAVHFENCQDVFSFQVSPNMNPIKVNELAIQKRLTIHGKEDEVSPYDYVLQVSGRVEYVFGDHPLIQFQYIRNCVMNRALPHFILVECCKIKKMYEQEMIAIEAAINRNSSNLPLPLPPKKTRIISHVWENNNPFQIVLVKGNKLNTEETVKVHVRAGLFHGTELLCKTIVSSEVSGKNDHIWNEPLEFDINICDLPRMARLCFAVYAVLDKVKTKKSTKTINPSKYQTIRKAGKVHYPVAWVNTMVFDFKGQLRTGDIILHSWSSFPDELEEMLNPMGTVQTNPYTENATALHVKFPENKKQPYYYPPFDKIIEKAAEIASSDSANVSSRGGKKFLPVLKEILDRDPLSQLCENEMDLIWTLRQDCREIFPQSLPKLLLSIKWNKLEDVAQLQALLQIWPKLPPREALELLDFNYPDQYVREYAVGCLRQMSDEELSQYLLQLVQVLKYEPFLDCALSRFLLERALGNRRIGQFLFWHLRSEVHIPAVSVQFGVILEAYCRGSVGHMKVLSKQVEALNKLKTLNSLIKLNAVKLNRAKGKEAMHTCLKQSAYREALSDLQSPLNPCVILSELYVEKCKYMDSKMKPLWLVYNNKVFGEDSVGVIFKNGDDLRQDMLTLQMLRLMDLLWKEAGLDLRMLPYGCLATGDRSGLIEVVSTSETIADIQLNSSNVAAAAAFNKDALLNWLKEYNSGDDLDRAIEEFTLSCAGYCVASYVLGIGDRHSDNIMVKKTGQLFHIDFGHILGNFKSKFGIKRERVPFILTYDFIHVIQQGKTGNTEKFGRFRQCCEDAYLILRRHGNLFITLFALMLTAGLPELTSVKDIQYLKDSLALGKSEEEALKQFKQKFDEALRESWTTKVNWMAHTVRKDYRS
T3 sequence (P27986 whole entry partner): as the sequence (P27986 whole entry partner) above

PI3K γ (p110γ) = biological target: T4, PI3K γ (p110γ) (Homo sapiens, UniProt P48736); assay: PI 3-Kinase (human) HTRF assay, PI3K γ; assay type: biochemical; details: read-out: PI3K γ IC50
T4 construct: purchased Upstate / Millipore Corporation
T4 sequence (P48736 whole entry): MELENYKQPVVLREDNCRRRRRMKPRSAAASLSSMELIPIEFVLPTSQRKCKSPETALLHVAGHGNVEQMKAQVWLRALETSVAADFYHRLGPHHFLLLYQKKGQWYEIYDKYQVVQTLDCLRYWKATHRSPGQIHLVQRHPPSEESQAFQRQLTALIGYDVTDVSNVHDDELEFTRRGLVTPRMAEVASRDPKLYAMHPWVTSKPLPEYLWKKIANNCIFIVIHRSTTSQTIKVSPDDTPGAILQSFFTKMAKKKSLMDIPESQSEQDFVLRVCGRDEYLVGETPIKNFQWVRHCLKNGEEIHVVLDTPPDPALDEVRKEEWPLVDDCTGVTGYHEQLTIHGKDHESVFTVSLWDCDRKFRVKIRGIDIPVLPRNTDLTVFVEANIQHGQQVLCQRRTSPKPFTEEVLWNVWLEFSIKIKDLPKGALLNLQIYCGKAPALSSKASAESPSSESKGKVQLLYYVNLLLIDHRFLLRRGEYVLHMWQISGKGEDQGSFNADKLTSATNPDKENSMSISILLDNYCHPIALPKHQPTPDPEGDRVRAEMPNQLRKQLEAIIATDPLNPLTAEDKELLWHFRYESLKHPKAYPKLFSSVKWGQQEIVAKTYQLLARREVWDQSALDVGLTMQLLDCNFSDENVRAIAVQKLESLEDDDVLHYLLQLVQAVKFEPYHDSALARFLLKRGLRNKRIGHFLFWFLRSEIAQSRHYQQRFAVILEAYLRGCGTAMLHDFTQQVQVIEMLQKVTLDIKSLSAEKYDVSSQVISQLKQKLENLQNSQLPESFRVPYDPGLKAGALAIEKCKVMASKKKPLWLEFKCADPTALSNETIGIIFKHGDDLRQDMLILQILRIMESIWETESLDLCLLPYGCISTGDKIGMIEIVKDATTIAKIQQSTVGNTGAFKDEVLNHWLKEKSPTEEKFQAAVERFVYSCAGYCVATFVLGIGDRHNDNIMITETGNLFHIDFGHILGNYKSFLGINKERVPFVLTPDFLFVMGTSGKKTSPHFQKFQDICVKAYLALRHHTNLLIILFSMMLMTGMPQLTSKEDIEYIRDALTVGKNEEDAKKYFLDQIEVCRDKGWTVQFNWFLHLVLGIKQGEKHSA

SMILES	dose limiting or most common side effect [1]	other results
CCC1=C[C@@H]2CN(C1)Cc1c([nH]c3ccccc13)[C@@](C(=O)OC)(c1cc3c(cc1OC)N(C)[C@H]1[C@@](O)(C(=O)OC)[C@H](OC(C)=O)[C@]4(CC)C=CCN5CC[C@]31[C@@H]54)C2 (relative stereo) [vinorelbine, 3′,4′-didehydro-4′-deoxy-C′-norvincaleukoblastine [R—(R*,R*)-2,3-dihydroxybutanedioate (1:2)(salt)]]	Myelosuppression	–
O=c1[nH]cc(F)c(=O)[nH]1 [5-fluorouracil, 5-fluoro-2,4-(1H,3H) pyrimidinedione]	Myelosuppression and mucositis	–
Nc1noc2cc(-c3ccc4nccc(-c5ccncc5)c4c3)ccc12 [Compound 16]	–	pIC50 (PI3K α (p110α/p85α)): > 7.00; pIC50 (T47D): > 6.00; pIC50 (PI3K δ): > 5.00; pIC50 (PI3K β (p110β/p85α)): > 5.00
CN1CC(C(=O)N2CCC(Nc3ncnc4ccc(-c5ccc6oc(N)nc6c5)cc34)CC2)C1 [Compound 138]	–	pIC50 (PI3K α (p110α/p85α)): > 7.00; pIC50 (T47D): < 5.00; pIC50 (PI3K δ): > 7.00; pIC50 (PI3K β (p110β/p85α)): > 6.00; pIC50 (PI3K γ (p110γ)): > 6.00
CC1CN(c2cnc3ccc(-c4ccc5oc(N)nc5c4)cc3n2)CCN1 (stereo not shown) [Compound 149]	–	pIC50 (PI3K α (p110α/p85α)): > 7.00; pIC50 (T47D): < 5.00; pIC50 (PI3K δ): > 5.00; pIC50 (PI3K β (p110β/p85α)): > 7.00
CS(=O)(=O)OCCCCOS(C)(=O)=O [busulfan, 1,4-butanediol dimethanesulfonate]	Bone marrow suppression	–
N.N.O=C([O-])C1(C(=O)[O-])CCC1.[Pt+2] [carboplatin, platinum, diamine [1,1-cyclobutane-dicarboxylate(2-)-O,O′]]	Bone marrow suppression	–
O=C(O)CCCc1ccc(N(CCCl)CCCl)cc1 [chlorambucil]	Bone marrow suppression	–
N.N.[Cl][Pt][Cl] [cisplatin, cis-diamminedichloroplatinum]	nephrotoxicity, which may be controlled by hydration and diuresis, and ototoxicity	–
O.O=P1(N(CCCl)CCCl)NCCCO1 (stereo not shown) [cyclophosphamide, 2-[bis(2-chloroethyl)amino]tetrahydro-2H-1,3,2-oxazaphosphorine 2-oxide monohydrate]	Alopecia, nausea, vomiting and leukopenia	–
CN(C)N=Nc1[nH]cnc1C(N)=O [dacarbazine, 5-(3,3-dimethyl-1-triazeno)-imidazole-4-carboxamide]	Nausea, vomiting, and anorexia	–
Cc1c2oc3c(C)ccc(C(=O)N[C@@H]4C(=O)N[C@H](C(C)C)C(=O)N5CCC[C@H]5C(=O)N(C)CC(=O)N(C)[C@@H](C(C)C)C(=O)O[C@@H]4C)c3nc-2c(C(=O)N[C@@H]2C(=O)N[C@H](C(C)C)C(=O)N3CCC[C@H]3C(=O)N(C)CC(=O)N(C)[C@@H](C(C)C)C(=O)O[C@@H]2C)c(N)c1=O [dactinomycin] (I: T[dV]P[Sar][NMeV] / II: T[dV]P[Sar][NMeV]; ester I:1-I:C, II:1-II:C; linker I:N-II:N via Actinocin(9to1))	Nausea, vomiting, and anorexia	–
COc1cccc2c1C(=O)c1c(O)c3c(c(O)c1C2=O)C[C@@](O)(C(C)=O)C[C@@H]3O[C@H]1C[C@H](N)[C@H](O)[C@H](C)O1 [daunorubicin, (8S-cis-)-8-acetyl-10-[(3-amino-2,3,6-trideoxy-α-L-lyxo-hexopyranosyl)oxy]-7,8,9,10-tetrahydro-6,8,11-trihydroxy-1-methoxy-5,12 naphthacenedione hydrochloride]	Myelosuppression	–
CC(=O)O[C@@]12CO[C@@H]1C[C@H](O)[C@@]1(C)C(=O)[C@H](O)C3=C(C)[C@@H](OC(=O)[C@H](O)[C@@H](NC(=O)OC(C)(C)C)c4ccccc4)C[C@@](O)([C@@H](OC(=O)c4ccccc4)[C@H]21)C3(C)C [docetaxel, (2R,3S)—N-carboxy-3-phenylisoserine, N-tert-butyl ester, 13-ester with 5β-20-epoxy-1,2α,4,7β,10β,13α-hexahydroxytax-1-1-en-9-one 4-acetate 2-benzoate, trihydrate]	neutropenia	–
COc1cccc2c1C(=O)c1c(O)c3c(c(O)c1C2=O)C[C@@](O)(C(=O)CO)C[C@@H]3O[C@H]1C[C@H](N)[C@H](O)[C@H](C)O1.Cl [doxorubicin, (8S,10S)-10-[(3-amino-2,3,6-trideoxy-α-L-lyxo-hexopyranosyl)oxy]-8-glycoloyl, 7,8,9,10-tetrahydro-6,8,11-trihydroxy-1-methoxy-5,12 naphthacenedione hydrochloride]	Myelosuppression	–
Nc1ccn([C@@H]2O[C@H](CO)[C@@H](O)C2(F)F)c(=O)n1 [gemcitabine, 2′-deoxy-2′,2′-difluorocytidine monohydrochloride (β-isomer)]	Myelosuppression, including leucopenia, thrombocytopenia, and anemia	–
CCc1c2c(nc3ccc(OC(=O)N4CCC(N5CCCCC5)CC4)cc13)-c1cc3c(c(=O)n1C2)COC(=O)[C@]3(O)CC [irinotecan HCl, (4S)-4,11-diethyl-4-hydroxy-9-[(4-piperidinopiperidino)carbonyloxy]-1H-pyrano[3′,4′,6,7]indolizino[1,2-b]quinoline-3,14(4H,12H)-dione hydrochloride]	myelosuppression, including neutropenia, and GI effects, including diarrhea	–
N[C@@H](Cc1ccc(N(CCCl)CCCl)cc1)C(=O)O [melphalan, 4-[bis(2-chloroethyl)amino]-L-phenylalanine]	Bone marrow suppression	–
O.Sc1ncnc2nc[nH]c12 [mercaptopurine, 1,7-dihydro-6H-purine-6-thione monohydrate]	Myelosuppression and gastrointestinal mucositis	–
CN(Cc1cnc2nc(N)nc(N)c2n1)c1ccc(C(=O)N[C@@H](CCC(=O)O)C(=O)O)cc1 [methotrexate]	Myelosuppression (leucopenia, thrombocytopenia, and anemia) and mucositis	–
COc1cc([C@@H]2c3cc4c(cc3[C@@H](O[C@@H]3O[C@@H]5CO[C@@H](c6cccs6)O[C@H]5[C@H](O)[C@H]3O)[C@H]3COC(=O)[C@H]23)OCO4)cc(OC)c1O [teniposide, 4′-demethyl-epipodophyllotoxin 9[4,6-0-(R)-thenylidene-β-D-glucopyranoside]]	Myelosuppression	–
Nc1nc2nc[nH]c2c(=S)[nH]1 [thioguanine, 2-amino-1,7-dihydro-6H-purine-6-thione]	Myelosuppression, including leucopenia, thrombocytopenia, and anemia	–
CC[C@@]1(O)C(=O)OCc2c1cc1n(c2=O)Cc2cc3c(CN(C)C)c(O)ccc3nc2-1 [topotecan HCl, (S)-10-[(dimethylamino)methyl]-4-ethyl-4,9-dihydroxy-1H-pyrano[3′,4′,6,7]-indolizino[1,2-b]quinoline-3,14-(4H,12H)-dione monohydrochloride]	myelosuppression, primarily neutropenia	–
CC[C@]1(O)C[C@H]2CN(CCc3c([nH]c4ccccc34)[C@@](C(=O)OC)(c3cc4c(cc3OC)N(C=O)[C@H]3[C@@](O)(C(=O)OC)[C@H](OC(C)=O)[C@]5(CC)C=CCN6CC[C@]43[C@@H]65)C2)C1 [vincristine, vincaleukoblastine, 22-oxo-, sulfate]	Alopecia and neurologic effects	–
